Patent US8710198B2, “Caprazene as a novel compound and derivatives thereof, and caprazol as a novel compound and derivatives thereof” (Meiji Seika Pharma Co., Ltd., priority 2003, dated 2014)

Columns and labels:
bacteria = test: Antibacterial activity; assay type: cell-based; settings: statement in words
enzyme MraY = enzyme MraY (Escherichia coli, UniProt P0A6W3); settings: statement in words
[1] = test system: Staphylococcus aureus FDA209P; test: Minimum growth inhibitory concentration on agar culture medium by serial dilution method (Japanese Society of Chemotherapy); assay type: cell-based
Outline: (§1)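 MICs (mcg/ml) were determined by serial dilution on agar culture medium, following the Japanese Society of Chemotherapy standard method.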

Micrococcus luteus FDA16 = test: as above; assay type: cell-based
Outline: as §1

[2] = test system: Staphylococcus aureus ATCC607; test: Minimum growth inhibitory concentration on agar medium by serial dilution method, Table 14; assay type: cell-based
Experimental: Minimum growth inhibitory concentrations (mcg/ml) of caprazene-1′″-amide derivatives of the formula (II) against some of microorganisms were measured on an agar culture medium by a serial dilution method according to the standard method as provided by Japanese Society of Chemotherapy. For the cultivation of Mycobacterium smegmatis (one of […]), however, there was used an agar culture medium with the addition of 1% glycerine (the same applies to in the following tests).
Minimum growth inhibitory concentrations (mcg/ml) of some of the derivative of the formula (VIII) against a variety of microorganisms were measured on an agar medium by a serial dilution method according to the standard method as provided by Japanese Society of Chemotherapy.

enzyme MraY, sequence (P0A6W3 whole entry): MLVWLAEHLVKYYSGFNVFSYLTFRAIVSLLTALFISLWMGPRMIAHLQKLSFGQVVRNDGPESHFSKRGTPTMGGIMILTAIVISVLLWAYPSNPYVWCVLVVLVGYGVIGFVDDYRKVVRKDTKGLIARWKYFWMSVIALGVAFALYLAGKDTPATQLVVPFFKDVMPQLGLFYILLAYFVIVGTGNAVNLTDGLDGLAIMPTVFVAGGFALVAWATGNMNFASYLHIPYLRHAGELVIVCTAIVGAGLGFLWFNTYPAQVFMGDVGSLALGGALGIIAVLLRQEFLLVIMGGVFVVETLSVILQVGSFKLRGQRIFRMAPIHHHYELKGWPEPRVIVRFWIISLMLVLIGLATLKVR

Compound | antibacterial activity (bacteria) | inhibitory activity against enzyme MraY (enzyme MraY) | Minimum growth inhibitory concentration (mcg/ml) against bacteria Staphylococcus aureus FDA209P [1] | Minimum growth inhibitory concentration (mcg/ml) against bacteria Micrococcus luteus FDA16 (Micrococcus luteus FDA16) | Minimum growth inhibitory concentration (mcg/ml) against bacteria Staphylococcus aureus ATCC607 [2]
CN1C(=O)[C@H](C(O[C@@H]2O[C@H](CN)[C@@H](O)[C@H]2O)[C@H]2O[C@@H](n3ccc(=O)[nH]c3=O)[C@H](O)[C@@H]2O)N(C)CC=C1C(=O)O (stereo partly shown) [Caprazene, caprazene] | no antibacterial activity | inhibitory activity against enzyme MraY |  |  | 
CN1C[C@H](O)[C@@H](C(=O)O)N(C)C(=O)[C@@H]1[C@H](O[C@@H]1O[C@H](CN)[C@@H](O)[C@H]1O)[C@H]1O[C@@H](n2ccc(=O)[nH]c2=O)[C@H](O)[C@@H]1O [caprazol] | no antibacterial activity | inhibitory activity against enzyme MraY |  |  | 
CCCCCCCCCCCN1C(=O)C(C(O)CN(C)C(C(=O)NC)C(OC2OC(CN)C(O)C2O)C2OC(n3ccc(=O)[nH]c3=O)C(O)C2O)N(C)C1=O (stereo not shown) [Compound VIII-F] |  |  | 25 µg/mL | 6.25 µg/mL | 6.25 µg/mL
CCCCCCCCCCN1C(=O)C(C(O)CN(C)C(C(=O)NC)C(OC2OC(CN)C(O)C2O)C2OC(n3ccc(=O)[nH]c3=O)C(O)C2O)N(C)C1=O (stereo not shown) [Compound VIII-E] |  |  | 25 µg/mL | 6.25 µg/mL | 6.25 µg/mL
